Seven compounds from ChEMBL document CHEMBL1955772, “Cytotoxic terpenoids from Juglans sinensis leaves and twigs” (Bioorg Med Chem Lett, 2012) can be followed below.

For test [1], the system named is HEp-2. Briefly: Cytotoxicity against human Hep2 cells after 24 hrs by MTS assay. Type of test: functional, cell-based. Particulars: HEp-2, 24 h.
Test [2] in a line: Cytotoxicity against human U87MG cells after 24 hrs by MTS assay. Type of test: functional, cell-based, U-87MG ATCC. Particulars: U-87 MG.
The test system of test [3] is MCF7. Description: Cytotoxicity against human MCF7 cells after 24 hrs by MTS assay. Type of test: functional, cell-based. Particulars: MCF7, 24 h. In general terms: Tetrazolium dyes change colour on reduction, which living cells bring about.
The subject of test [4] is B16-F10. Description: Cytotoxicity against mouse B16F10 cells after 24 hrs by MTS assay. Type of test: functional, cell-based. Particulars: B16-F10, 24 h.

Turning to `C[C@H]1[C@H](C)CC[C@]2(C(=O)O[C@@H]3O[C@H](CO)[C@@H](O)[C@H](O)[C@H]3O)CC[C@]3(C)C(=CC[C@@H]4[C@@]5(C)C[C@@H](O)[C@@H](O)[C@@](C)(CO)[C@@H]5CC[C@]43C)[C@H]12`, the IC50 in test [1], in test [2], in test [3] and in test [4] was greater than 10 µM throughout.
As to `CC(C)(O)[C@@H]1C[C@H]2[C@@](C)(C[C@@H]3C[C@@]32C)C[C@@H]1O`, the IC50 (as a rule, the concentration that inhibits the measured activity by half) in test [1] is 4.22 µM; in test [2], 1.13 µM; in test [3], 1.81 µM; in test [4], greater than 10 µM.
On the same counts, the results for `CC(C)(O[C@@H]1O[C@H](CO)[C@@H](O)[C@H](O)[C@H]1O)[C@@H]1CC[C@@]2(C)CCC=C(CO)[C@@H]2C1` are greater than 10 µM, greater than 10 µM, greater than 10 µM and greater than 10 µM.
On the same counts, the results for `CC(C)(O)[C@@H]1C[C@H]2[C@](C)(CC1=O)C[C@@H]1C[C@@]12C` are 5.25 µM, 1.16 µM, 4.11 µM and 0.3 µM.
On to `CC(C)(O)[C@@H]1C[C@H]2[C@@](C)(C[C@@H]3C[C@@]32C)C[C@H]1O` (relative stereo), for which the IC50 in test [1], in test [2], in test [3] and in test [4] was greater than 10 µM in each case.
Regarding `CO[C@@H]1O[C@@]2(CO)CC[C@@]13CC[C@]1(C)[C@H](C[C@@H](O)[C@@H]4[C@@]5(C)CC[C@H](O)[C@](C)(CO)[C@@H]5CC[C@]41C)[C@@H]3[C@]2(C)O` (relative stereo), the IC50 in test [1] came to 5.52 µM; in test [2] it was 3.29 µM; in test [3], 1.25 µM; in test [4], 1.53 µM.
For the compound `CC1(C)C=C2[C@H]3CC[C@@H]4[C@@]5(C)[C@@H](O)C[C@H](O)C(C)(C)[C@@H]5CC[C@@]4(C)[C@]3(C)CC[C@@]2(C)CC1` (relative stereo), the IC50 in test [1] stood at 5.4 µM; in test [2], 1.31 µM; in test [3], 3.86 µM; in test [4], 0.3 µM.
